Results published in ChEMBL document CHEMBL1201862, “PubChem BioAssay data set” (2004).
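48-hour exposure; five concentrations; linearly interpolated endpoints. GI50: concentration for 50% inhibition of growth.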 Calls of active or inactive are those of the source. Rule as the data show it: active = GI50 up to about 1.1 µM and inactive = higher.

Experiments:
Test in all cases: NCI anticancer screen, dose series, 48 h
[1] = test system: BT-549
[2] = test system: NCI-H460
[3] = test system: MDA-N
[4] = test system: A549
[5] = test system: SK-MEL-2
[6] = test system: SF-268
[7] = test system: HOP-92
[8] = test system: M14
[9] = test system: OVCAR-4
[10] = test system: ACHN
[11] = test system: CCRF-CEM
[12] = test system: MOLT-4
[13] = test system: PC-3
[14] = test system: DU-145
[15] = test system: KM12
[16] = test system: SF-295
[17] = test system: EKVX
[18] = test system: A498
[19] = test system: Hs-578T

Row | SMILES | GI50 [1] | GI50 [2] | GI50 [3] | GI50 [4] | GI50 [5] | GI50 [6] | GI50 [7] | GI50 [8] | GI50 [9] | GI50 [10] | GI50 [11] | GI50 [12] | GI50 [13] | GI50 [14] | GI50 [15] | GI50 [16] | GI50 [17] | GI50 [18] | GI50 [19]
1 | Cc1cc(Cl)nc2ccc(Cc3ccc4nc(Cl)cc(C)c4c3)cc12 | 42.2 µM (inactive) | 41.5 µM (inactive) | 47.3 µM (inactive) | 47.5 µM (inactive) | 47.5 µM (inactive) | 43.2 µM (inactive) | 43.1 µM (inactive) | 85.3 µM (inactive) | 34.8 µM (inactive) | 16 µM (inactive) | > 100 µM (inactive) | > 100 µM (inactive) | 42.7 µM (inactive) | > 100 µM (inactive) | > 100 µM (inactive) | 22 µM (inactive) | 44.3 µM (inactive) | 21 µM (inactive) | 36.3 µM (inactive)
2 | O=c1c2ccccc2c2ccccc2c(=O)n1-c1cc2c3ccccc3ccc2c2ccccc12 | > 100 µM (inactive) | > 100 µM (inactive) | > 100 µM (inactive) | > 100 µM (inactive) | > 100 µM (inactive) | > 100 µM (inactive) | > 100 µM (inactive) | > 100 µM (inactive) | > 100 µM (inactive) | > 100 µM (inactive) |  |  | > 100 µM (inactive) | > 100 µM (inactive) | > 100 µM (inactive) | > 100 µM (inactive) | > 100 µM (inactive) | > 100 µM (inactive) | > 100 µM (inactive)
3 | O=S(=O)(Nc1nc2ccccc2nc1Nc1cccc2ccccc12)c1ccccc1 | 10.4 µM (inactive) | 4.41 µM (inactive) | > 100 µM (inactive) | 7.35 µM (inactive) | 18.9 µM (inactive) | 26.5 µM (inactive) | 2.7 µM (inactive) | 62.4 µM (inactive) | 1.24 µM (inactive) | 8 µM (inactive) |  |  | 6.46 µM (inactive) | > 100 µM (inactive) | 5.61 µM (inactive) | 6.17 µM (inactive) | 8.97 µM (inactive) |  | 21.1 µM (inactive)
4 | N/N=C1\C(OC(=O)Nc2ccccc2)=Nc2ccccc21 | 11.7 µM (inactive) | 10.9 µM (inactive) | 19.1 µM (inactive) | 17 µM (inactive) | 19.7 µM (inactive) | 36.1 µM (inactive) | 15.2 µM (inactive) | 13.4 µM (inactive) | 12.8 µM (inactive) | 15.1 µM (inactive) |  |  | 15.4 µM (inactive) | 10.8 µM (inactive) | 13.1 µM (inactive) | 14 µM (inactive) | 18.2 µM (inactive) | 17.1 µM (inactive) | 36.2 µM (inactive)
5 | O=C(CCCCCCCCC(=O)N1C(=O)CC(=O)N(c2ccccc2)C1=S)N1C(=O)CC(=O)N(c2ccccc2)C1=S | > 100 µM (inactive) | > 100 µM (inactive) | > 100 µM (inactive) | > 100 µM (inactive) | > 100 µM (inactive) | > 100 µM (inactive) | > 100 µM (inactive) | > 100 µM (inactive) | > 100 µM (inactive) | > 100 µM (inactive) | > 100 µM (inactive) | > 100 µM (inactive) | > 100 µM (inactive) | > 100 µM (inactive) | > 100 µM (inactive) | > 100 µM (inactive) | > 100 µM (inactive) | > 100 µM (inactive) | > 100 µM (inactive)
6 | O=S(=O)(c1cc(Cl)ccc1Cl)N1CCN(S(=O)(=O)c2cc(Cl)ccc2Cl)CC1 | > 100 µM (inactive) | > 100 µM (inactive) | > 100 µM (inactive) | > 100 µM (inactive) | 0.403 µM (active) | > 100 µM (inactive) | > 100 µM (inactive) | > 100 µM (inactive) |  | > 100 µM (inactive) |  | > 100 µM (inactive) | > 100 µM (inactive) | 16.1 µM (inactive) | > 100 µM (inactive) | > 100 µM (inactive) |  | > 100 µM (inactive) | 19.8 µM (inactive)
